We go through one compound from PubChem BioAssay AID624323 (Sanford-Burnham Center for Chemical Genomics, 2012).

For this series, the system named is aqueous buffer solubility, pH 5.0/6.2/7.4. Kind of series: aqueous buffer solubility at three pH values, ADME assay, biophysical, set 2 (AID 624323). The conditions noted are these: at 100 µM, stronger effect = higher value.

Turning to `O=C(O)CCC(NS(=O)(=O)c1ccc(-c2ccccc2)cc1)C(=O)O` (stereo not drawn), the solubility (usually the concentration that dissolves in the medium under given conditions) is > 36 µg/mL. For the same compound, for the setting “measured here: solubility at pH 5.0”, the solubility was > 36 µg/mL. In addition, the solubility (measured here: solubility at pH 6.2) was > 36 µg/mL.
